Assay results from US8119630B2 (Arrow Therapeutics Limited, priority 2002, dated 2012).
pIC50: −log10 of the molar value. Where two headings read alike, the source gives them in different places.

Tests used:
RSV = assay: XTT assay, RSV-infected Vero cells; type: cell-based, Respiratory Syncytial Virus (RSV); details: Vero cells infected with RSV, m.o.i.≈0.2, 6 days at 33° C.; for IC50: human respiratory syncytial virus, Vero, 144 h, read-out: XTT IC50 (uM), Table 2, Examples 83 to 124
In short: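 Vero cells infected with RSV at m.o.i.≈0.2 in presence of serially ½-log diluted compound, incubated 6 days at 33 °C. Viability read by XTT/PMS (5 h, 37 °C) at OD450; uninfected untreated cells = 100%, infected controls = 0% inhibition. IC50 from graph or regression; parallel uninfected plates for toxicity.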

Vero cells = assay: Simultaneous toxicity investigation (XTT), Vero cells; type: cell-based; parameters: unit not given here; details: for TC50 (2d): Table 2, Examples 83 to 124, 2d; for TC50 (6d): Table 2, Examples 83 to 124, 6d
Procedure: The inner 60 wells of 96 well tissue culture plates were seeded with Vero cells at 3×10^4 cells/well (1×10^4 cells/well for toxicity studies) in 100 or 150 μl of medium and incubated at 37° C. overnight or until nearing confluency. For primary screen, 25 μl compounds were added directly to 100 μl medium in single wells to duplicate plates. A third plate was prepared for simultaneous toxicity investigation.
For follow-up investigation, 70 μl of compound in duplicate wells were added directly to culture medium at 3.2× final concentration and ½ log serially diluted down columns of plate. A duplicate plate was prepared for simultaneous toxicity investigation.
Cells were infected with 25 μl RSV to give m.o.i.≈0.2. […] Some 0.25 μl/ml PMS were added to stock XTT solution, final conc. […]. Then 25 μl warmed XTT/PMS solution were added to each well and incubated for 5 hours at 37° C. Plates were shaken (DynaTech Vari-Shaker) vigorously for 10 mins and allowed to cool for 15 mins before sealing. Absorbance at 450 nm was measured and data analysed using Microsoft Excel software.

SMILES | IC50 (RSV) [µM] | TC50 (2d) (Vero cells) | TC50 (6d) (Vero cells) | pIC50 (RSV; Table 2, Examples 83 to 124, read-out: XTT IC50)
COc1ccc(C(=O)NC2N=C(c3ccccc3)c3ccccc3NC2=O)cc1[N+](=O)[O-] (stereo not drawn) [Example 89, 4-Methoxy-3-nitro-N-(2-oxo-5-phenyl-2,3-dihydro-1H-benzo[e][1,4]diazepin-3-yl)benzamide] | 0.8 | >100 | >100 | –
COc1cccc(C(=O)NC2N=C(c3ccccc3)c3ccccc3NC2=O)c1[N+](=O)[O-] (stereo not drawn) [Example 90, 3-Methoxy-2-nitro-N-(2-oxo-5-phenyl-2,3-dihydro-1H-benzo[e][1,4]diazepin-3-yl)-benzamide] | 0.5 | 100 | 100 | –
COc1ccc(Cl)cc1C(=O)NC1N=C(c2ccccc2)c2ccccc2NC1=O (stereo not drawn) [Example 91, 5-chloro-2-methoxy-N-(2-oxo-5-phenyl-2,3-dihydro-1H-benzo[e][1,4]diazepin-3-yl)benzamide] | 0.3 | 100 | 100 | –
COc1ccc(F)cc1C(=O)NC1N=C(c2ccccc2)c2ccccc2NC1=O (stereo not drawn) [Example 92, 5-Fluoro-2-methoxy-N-(2-oxo-5-phenyl-2,3-dihydro-1H-benzo[e][1,4]diazepin-3-yl)-benzamide] | < 0.3 | 100 | 100 | –
COc1cc([N+](=O)[O-])ccc1C(=O)NC1N=C(c2ccccc2)c2ccccc2NC1=O (stereo not drawn) [Example 93, 2-Methoxy-4-nitro-N-(2-oxo-5-phenyl-2,3-dihydro-1H-benzo[e][1,4]diazepin-3-yl)-benzamide] | < 0.3 | 100 | >100 | –
COc1ccc([N+](=O)[O-])c(C(=O)NC2N=C(c3ccccc3)c3ccccc3NC2=O)c1 (stereo not drawn) [Example 94, 5-Methoxy-2-nitro-N-(2-oxo-5-phenyl-2,3-dihydro-1H-benzo[e][1,4]diazepin-3-yl)-benzamide] | 1.5 | >100 | >100 | –
COc1cc(C(=O)NC2N=C(c3ccccc3)c3ccccc3NC2=O)ccc1[N+](=O)[O-] (stereo not drawn) [Example 95, 3-Methoxy-4-nitro-N-(2-oxo-5-phenyl-2,3-dihydro-1H-benzo[e][1,4]diazepin-3-yl)-benzamide] | 1.5 | 100 | >100 | –
COc1ccccc1CCC(=O)NC1N=C(c2ccccc2)c2ccccc2NC1=O (stereo not drawn) [Example 96, 3-(2-Methoxy-phenyl)-N-(2-oxo-5-phenyl-2,3-dihydro-1H-benzo[e][1,4]diazepin-3-yl)propionamide] | 5 | >100 | >100 | –
COc1cccc(CCC(=O)NC2N=C(c3ccccc3)c3ccccc3NC2=O)c1 (stereo not drawn) [Example 97, 3-(3-Methoxy-phenyl)-N-(2-oxo-5-phenyl-2,3-dihydro-1H-benzo[e][1,4]diazepin-3-yl)-propionamide] | 5 | >100 | >100 | –
COc1ccc(CCC(=O)NC2N=C(c3ccccc3)c3ccccc3NC2=O)cc1 (stereo not drawn) [Example 98, 3-(4-Methoxy-phenyl)-N-(2-oxo-5-phenyl-2,3-dihydro-1H-benzo[e][1,4]diazepin-3-yl)-propionamide] | 5 | >100 | >100 | –
COc1ccccc1C(=O)NC1N=C(c2cccc(Cl)c2)c2ccccc2NC1=O (stereo not drawn) [Example 99, N-[5-(3-Chloro-phenyl)-2-oxo-2,3-dihydro-1H-benzo[e][1,4]diazepin-3-yl]-2-methoxy-benzamide] | 1 | 100 | >100 | –
COc1ccc(C(=O)NC2N=C(c3ccc(C(F)(F)F)cc3)c3ccccc3NC2=O)cc1 (stereo not drawn) [Example 103, 4-Methoxy-N-[2-oxo-5-(4-trifluoromethyl-phenyl)-2,3-dihydro-1H-benzo[e][1,4]diazepin-3-yl]-benzamide] | 7 | >100 | 30 | –
COc1ccccc1C(=O)NC1N=C(c2cccc(C(F)(F)F)c2)c2ccccc2NC1=O (stereo not drawn) [Example 104, 2-Methoxy-N-[2-oxo-5-(3-trifluoromethyl-phenyl)-2,3-dihydro-1H-benzo[e][1,4]diazepin-3-yl]-benzamide] | 5 | >100 | >100 | –
COc1ccc(C(=O)NC2N=C(c3cccc(C(F)(F)F)c3)c3ccccc3NC2=O)cc1 (stereo not drawn) [Example 105] | – | >100 | >100 | 5.05
CCOc1ccccc1C(=O)NC1N=C(c2ccccc2)c2ccccc2NC1=O (stereo not drawn) [Example 106, 2-Ethoxy-N-(2-oxo-5-phenyl-2,3-dihydro-1H-benzo[e][1,4]diazepin-3-yl)-benzamide] | 0.7 | >100 | >100 | –
COc1ccc(C(=O)NC2N=C(c3ccccc3)c3ccccc3NC2=O)c(OC)c1 (stereo not drawn) [Example 107, 2,4-Dimethoxy-N-(2-oxo-5-phenyl-2,3-dihydro-1H-benzo[e][1,4]diazepin-3-yl)-benzamide] | < 0.3 | 60 | 60 | –
COc1ccc(Br)c(C(=O)NC2N=C(c3ccccc3)c3ccccc3NC2=O)c1 (stereo not drawn) [Example 108, 2-Bromo-5-methoxy-N-(2-oxo-5-phenyl-2,3-dihydro-1H-benzo[e][1,4]diazepin-3-yl)-benzamide] | 2 | >100 | >100 | –
COc1cccc(C2=NC(NC(=O)c3ccccc3OC)C(=O)Nc3ccccc32)c1 (stereo not drawn) [Example 109, 2-Methoxy-N-[5-(3-methoxy-phenyl)-2-oxo-2,3-dihydro-1H-benzo[e][1,4]diazepin-3-yl]-benzamide] | 2 | 50 | 100 | –
COc1ccccc1C(=O)NC1N=C(c2ccccc2)c2ccc(C)cc2NC1=O (stereo not drawn) [Example 111, 2-Methoxy-N-(8-methyl-2-oxo-5-phenyl-2,3-dihydro-1H-benzo[e][1,4]diazepin-3-yl)-benzamide] | 3 | >100 | >100 | –
CS(=O)(=O)c1ccc(C(=O)NC2N=C(c3ccccc3)c3ccccc3NC2=O)c(Cl)c1 (stereo not drawn) [Example 112, 2-Chloro-4-methanesulfonyl-N-(2-oxo-5-phenyl-2,3-dihydro-1H-benzo[e][1,4]diazepin-3-yl)-benzamide] | 1.5 | >100 | >100 | –
CN(C)c1ccccc1C(=O)NC1N=C(c2ccccc2)c2ccccc2NC1=O (stereo not drawn) [Example 113, 2-Dimethylamino-N-(2-oxo-5-phenyl-2,3-dihydro-1H-benzo[e][1,4]diazepin-3-yl)-benzamide] | 1.5 | >100 | >100 | –
O=C(NC1N=C(c2ccccc2)c2ccccc2NC1=O)OCc1ccccc1 (stereo not drawn) [Example 114, (2-Oxo-5-phenyl-2,3-dihydro-1H-benzo[e][1,4]diazepin-3-yl)-carbamic acid benzyl ester] | 5 | >100 | 60 | –
Cc1cc(C)cc(NC(=O)NC2N=C(c3ccccc3)c3ccccc3NC2=O)c1 (stereo not drawn) [Example 115, 1-(3,5-Dimethyl-phenyl)-3-(2-oxo-5-phenyl-2,3-dihydro-1H-benzo[e][1,4]diazepin-3-yl)-urea] | 1.5 | >100 | 60 | –
O=C(Nc1ccc(OC(F)(F)F)cc1)NC1N=C(c2ccccc2)c2ccccc2NC1=O (stereo not drawn) [Example 116, 1-(2-Oxo-5-phenyl-2,3-dihydro-1H-benzo[e][1,4]diazepin-3-yl)-3-(4-trifluoromethoxy-phenyl)-urea] | 2 | 20 | 20 | –
O=C(Nc1ccc(Br)cc1C(F)(F)F)NC1N=C(c2ccccc2)c2ccccc2NC1=O (stereo not drawn) [Example 117, 1-(4-Bromo-2-trifluoromethyl-phenyl)-3-(2-oxo-5-phenyl-2,3-dihydro-1H-benzo[e][1,4]diazepin-3-yl)-urea] | 6 | 60 | 100 | –
O=C(NCc1ccc(Br)cc1)NC1N=C(c2ccccc2)c2ccccc2NC1=O (stereo not drawn) [Example 118, 1-(4-Bromo-benzyl)-3-(2-oxo-5-phenyl-2,3-dihydro-1H-benzo[e][1,4]diazepin-3-yl)-urea] | 2 | >100 | 100 | –
O=C(Nc1cccc(Cl)c1Cl)NC1N=C(c2ccccc2)c2ccccc2NC1=O (stereo not drawn) [Example 119, 1-(2,3-Dichloro-phenyl)-3-(2-oxo-5-phenyl-2,3-dihydro-1H-benzo[e][1,4]diazepin-3-yl)-urea] | 2 | >100 | 30 | –
Cc1cccc(C)c1NC(=O)NC1N=C(c2ccccc2)c2ccccc2NC1=O (stereo not drawn) [Example 120, 1-(2,6-Dimethyl-phenyl)-3-(2-oxo-5-phenyl-2,3-dihydro-1H-benzo[e][1,4]diazepin-3-yl)-urea] | 6 | >100 | 60 | –
